Source: patent publication US20200323954A1, “METHODS AND COMPOSITIONS FOR REDUCING GUT ISCHEMIA/REPERFUSION-INDUCED INJURY” (PanTheryx, Inc., priority 2019, published 2020)
Entries after “also recorded” stand apart in the source; their conditions may differ. Marks after values point to notes of the source that are not given here.

Columns and labels:
[1] = tested on: polarised Caco-2 monolayers; assay: Transepithelial electrical resistance (TEER) after H/R; type: cell-based, human
Protocol: (§1) Hypoxia (Ischemia)/Normoxia (Reperfusion) (H/R) protocols for in vitro studies: For all experiments AGS, Caco-2 and RIE1 cells were set up in plates as described in specific methods. Cells were used at 70-80% confluence for cell injury/death assessment and as confluent monolayers for permeability studies. To induce “ischemia”, cells were placed in a hypoxic incubator (2% 02) for specified time and to mimic reperfusion, cells were placed back in a normoxic (21% 02) incubator for specified time. All treatments were duplicated in a second set of identical plates under normoxic conditions throughout the same test period as controls. To determine optimum conditions for the in vitro studies, pilot studies were performed.
The effect of […] PSTI pre-treatment on transepithelial permeability induced by 1 hour of hypoxia followed by 24 hours of normoxia was examined using Caco-2, human polarizing colonic adenocarcinoma cells utilizing two different previously published methods according to Davison et al., 2016, Am J Nutr 2016; 104:526-536. One method determined change in transepithelial electrical resistance (TEER) and the other method analyzed the passage of horseradish peroxidase (HRP) across the epithelial layer. HRP (type II) is a non-digestible macromolecular protein (MW=44 kD) and has previously been used as a tracer in evaluation of epithelial permeability. Each monolayer had TEER and HRP permeability assessed at baseline, at the end of 1 h incubation in an hypoxic (ischemic) chamber and at the end of a 24 h reoxygenation (reperfusion) period. Measurements were taken in triplicate from 4 wells per treatment. Results are expressed as mean+/−SEM.

Caco-2 cells = assay: Apoptotic and protective pathways after H/R in Caco-2 cells; type: cell-based, human
Protocol: as §1
Cleared cell lysates from I/R experiments in Caco-2 cells were assessed for levels of the apoptotic molecules Caspase 3 (FIG. 5A), Caspase 9 (FIG. 5I), Baxα (FIG. 5B) and Bcl2 (FIG. 5C). HIF1α (FIG. 5Δ), VEGF (FIG. 5E), hSP70 (FIG. 5F), ICAM1 (FIG. 5G) and the tight junction molecules ZO1 (FIG. 5H) and Claudin1 (FIG. 5J) levels were also analysed.

RIE1 cells = assay: Apoptotic and protective pathways after H/R in RIE1 cells; type: cell-based, rat; conditions: RIE1, Hyp 1 h/Rep 24 h + PSTI, mean +/− SEM
Protocol: as §1

[2] = tested on: human colonic carcinoma HT29 cells; conditions: HT29 cells in vitro; cited from earlier work
NSAID-induced apoptosis = conditions: cited from earlier work
bladder cancer = conditions: cited from earlier work
renal tissue = assay: Gut I/R model, renal tissue; conditions: kidney, I/R + PSTI 20 μg/kg ip, mean ± SEM
50% SI (clamped region) = assay: Gut ischemia-reperfusion (I/R) model, clamped 50% SI site
[3] = Caco-2, 1 h or 4 h hypoxia + 24 h normoxia, PSTI 1 h before, vs H/R without PSTI
[4] = normoxic, any of the cell lines (data not shown)
[5] = 50% SI clamped, PSTI 20 μg/kg ip, vs I/R without PSTI

With “pancreatic secretory trypsin inhibitor (DSLGREAKCYNELNGCTKIYDPVCGTDGNTYPNECVLCFENRKRQTSILIQKSGPC; listed as Homo sapiens) [PSTI]” the “reduction of the fall in TEER caused by H/R” value ([1]; Caco-2, 1 h hypoxia + 24 h normoxia, PSTI pre-treatment) was “about 50%”, the “TEER under normoxic conditions” value ([1]; Caco-2, normoxia) was “no effect on TEER or HRP permeation; also recorded: no effect on transepithelial resistance (TEER)” and the “H/R-induced change in TEER permeability, medium alone vs PSTI” value ([1]; PSTI added to the medium prior to I/R) was “significantly greater increases in permeability compared to those that had PSTI added”. The “truncation of the damaging effect of hypoxia-normoxia on epithelial integrity” value ([1]; TEER and HRP permeation, polarized monolayers) was “about 65%”, the “further increase in HIF1α above the 42% increase induced by H/R” value (Caco-2 cells; 4 h hypoxia+24 h reoxygenation, cells pre-treated with PSTI (FIG. 5D)) was 11% and the “further increase in VEGF above the 34% increase caused by H/R” value (Caco-2 cells; 4 h hypoxia+24 h reoxygenation, co-presence of PSTI (FIG. 5E)) was 15%. For the same substance, the “increase in hSP70 after H/R with PSTI” value (Caco-2 cells; 4 h hypoxia+24 h reoxygenation, H/R alone about 63% (FIG. 5F)) was “about 80%”, the Baxα activity (Caco-2 cells; [3]) was “significantly truncated; also recorded: significantly decreased Baxα activity” and the Bcl2 activity (Caco-2 cells; [3]) was “this effect was truncated; also recorded: significantly attenuated reduction in Bcl2 activity”. The “Caspase 3 activity” value (Caco-2 cells; [3]) was “significantly decreased Caspase 3 activity”, the “Caspase 9 activity” value (Caco-2 cells; [3]) was “significantly decreased Caspase 9 activity” and the Claudin1 activity (Caco-2 cells; [3]) was “significantly attenuated reduction in Claudin1 activity”. The HIF1α activity (Caco-2 cells; [3]) was “significantly increased HIF1α activity”, the ICAM1 activity (Caco-2 cells; [3]) was “not influenced by the presence of PSTI; also recorded: did not significantly affect ICAM1 activity” and the VEGF activity (Caco-2 cells; [3]) was “significantly increased VEGF activity”. For the same substance, the ZO1 activity (Caco-2 cells; [3]) was “significantly attenuated reduction in ZO1 activity”, the hSP70 activity (Caco-2 cells; [3]) was “significantly increased hSP70 activity” and the “truncation of the H/R-induced fall in ZO1 and Claudin1” value (Caco-2 cells; after 4 hours of hypoxia (FIG. 5H, 5J)) was “about 50%”. For the same substance, the “Caspase 3, 9, Baxα or Bcl2 under normoxic conditions” value (Caco-2 cells; [4]) was “no effect on Caspase 3, 9, Baxα or Bcl2”, the “HIF1α or VEGF under normoxic conditions” value (Caco-2 cells; [4]) was “no effect on HIF1α or VEGF” and the “ICAM1 levels under normoxic conditions” value (Caco-2 cells; normoxic, any of the cell lines tested (data not shown)) was “no effect on ICAM1 levels”. The Baxα (RIE1 cells) was 97.6 +/− 0.01 ** $ % normoxic, the Bcl2 (RIE1 cells) was 49.3 +/− 1.91 ** $$ % normoxic and the “Caspase 3” value (RIE1 cells) was 112.3 +/− 2.70 * % normoxic. For the same substance, the “Caspase 9” value (RIE1 cells) was 120.6 +/− 17.02 * $ % normoxic, the Claudin 1 (RIE1 cells) was 75.6 +/− 2.1 ** $$ % normoxic and the HIF1α (RIE1 cells) was 144.1 +/− 0.17 ** $$ % normoxic. For the same substance, the ICAM1 (RIE1 cells) was 115.4 +/− 1.09 ** % normoxic, the VEGF (RIE1 cells) was 121.8 +/− 2.53 ** $$ % normoxic and the ZO1 (RIE1 cells) was 83.6 +/− 0.69 * $ % normoxic. For the same substance, the hSP70 (RIE1 cells) was 122.9 +/− 0.85 ** % normoxic, the cell migration [2] was “stimulate cell migration” and the proliferation [2] was “not proliferation”. The NSAID-induced apoptosis (NSAID-induced apoptosis) was “reduces NSAID-induced apoptosis”, the migration and invasion (bladder cancer) was “causes autocrine-mediated migration and invasion in bladder cancer” and the “phosphorylation of signalling proteins” value (bladder cancer) was “phosphorylates the EGF receptor, Akt2 and Akt3, and ERK1 and ERK2”. The Baxα (renal tissue) was 5.61 ± 0.63 pg/μg total protein, the Bcl2 (renal tissue) was 66.37 ± 4.89 pg/μg total protein and the “Caspase 3 activity” value (renal tissue) was 0.069 ± 0.019 Change in absorbance. For the same substance, the “Caspase 9 activity” value (renal tissue) was 0.053 ± 0.010 Change in absorbance, the “Claudin 1” value (renal tissue) was 0.154 ± 0.016 pg/μg total protein and the MDA (renal tissue) was 0.47 ± 0.047 nmol/μg of protein. The ZO1 (renal tissue) was 0.151 ± 0.008 pg/μg total protein, the hSP70 (renal tissue) was 36.6 ± 2.96 pg/μg total protein and the ICAM1 levels (50% SI (clamped region); 50% SI clamped (gut), PSTI 20 μg/kg ip, vs I/R without PSTI) was “did not affect increased ICAM1; also recorded: no effect on these results; also recorded: did not affect ICAM1 levels”. The “histological damage of small intestine” value (50% SI (clamped region); 50% SI clamped, PSTI 20 μg/kg ip 1 h before clamping, vs I/R without PSTI) was “much less extensive damage; also recorded: protective effects; also recorded: significantly reduced histological scoring”, the Baxα levels (50% SI (clamped region); [5]) was “truncated the increase; also recorded: significantly decreased the damaging pro-apoptotic Baxα activity” and the Bcl2 levels (50% SI (clamped region); [5]) was “maintained levels; also recorded: significantly increased the protective anti-apoptotic Bcl2 activity”. The “Caspase 3 levels” value (50% SI (clamped region); [5]) was “virtually eliminated; also recorded: significantly decreased Caspase 3 activity”, the “Caspase 9 levels” value (50% SI (clamped region); [5]) was “virtually eliminated; also recorded: significantly decreased Caspase 9 activity” and the Claudin1 levels (50% SI (clamped region); [5]) was “virtually completely prevented; also recorded: significantly increased the protective Claudin1”. For the same substance, the HIF1α levels (50% SI (clamped region); [5]) was “further increasing HIF1α and VEGF; also recorded: significantly increased the protective HIF1α”, the MDA levels (50% SI (clamped region); [5]) was “this increase was truncated; also recorded: significantly reduced MDA levels” and the MPO levels (50% SI (clamped region); [5]) was “significantly reducing these changes; also recorded: significantly reduced MPO levels”. For the same substance, the VEGF levels (50% SI (clamped region); [5]) was “further increasing HIF1α and VEGF; also recorded: significantly increased the protective VEGF”, the ZO1 levels (50% SI (clamped region); [5]) was “virtually completely prevented; also recorded: significantly increased the protective ZO1” and the hSP70 levels (50% SI (clamped region); [5]) was “Additional increases in hSP70 expression; also recorded: significantly increased the protective hSP70”. For the same substance, the “reduction of all injury markers” value (50% SI (clamped region); gut, lung, kidney (necrosis, MDA, MPO), PSTI 20 μg/kg, p<0.01) was 50-80% and the “histological and biochemical markers of injury in gut, lung and kidney” value (50% SI (clamped region); pre-treatment with PSTI) was “significantly reduced histological and biochemical markers of injury”.
